Patent publication US20240317727A1 (Duke University, priority 2018, published 2024)

How the values were obtained:
[1] = tested on: heat shock induced chaperone (Hsp25 and Hsp70) expression; test: Heat shock induced chaperone expression in MEFs, immunoblotting; format: cell-based, mouse; settings: heat shock 42° C. 30 mins, 6-hour recovery, FIG. 3
Protocol: The MEFs were then subjected to heat shock stress at 42° C. for 30 mins to activate HSF1. After heat shock, the MEFs were incubated at 37° C. for a 6-hour recovery. The whole cell lysates were collected at the end of the experiment, and proteins of interest, including Hsp25, Hsp70, HSF1 and GAPDH (as loading control) were assessed by immunoblotting with the corresponding antibody.

[2] = tested on: C4/2 scramble and HSF1-knockdown cell lines; test: C4/2 scramble vs HSF1-knockdown cell line; format: cell-based, human
Protocol: GAPDH was used as a loading control. […] Hsp70 is a gene activated by HSF1 and STAT6 is a gene repressed by HSF1. […] Shown is the solvent (DMSO) or two concentrations of Compound 0017 at 2.5 and 5 μM. ns=not significant; *=P<0.05; **=P<0.01 in accordance with one embodiment of the present disclosure.

[3] = tested on: SNB-75; test: NCI60 cell growth and viability: SNB-75; format: cell-based; settings: SNB-75, CNS Cancer, two days
[4] = tested on: NCI-H522; format: cell-based; settings: NCI-H522, Non-Small Cell Lung Cancer, two days
[5] = tested on: K-562; test: NCI60 cell growth and viability: K-562; format: cell-based; settings: K-562, Leukemia, two days
[6] = tested on: MALME-3M; test: NCI60 cell growth and viability: MALME-3M; format: cell-based; settings: Melanoma, two days
[7] = tested on: SK-OV-3; test: NCI60 cell growth and viability: SK-OV-3; format: cell-based; settings: SK-OV-3, Ovarian Cancer, two days
[8] = tested on: RPMI-8226; test: NCI60 cell growth and viability: RPMI-8226; format: cell-based; settings: RPMI-8226, Leukemia, two days
[9] = tested on: SN12C; test: NCI60 cell growth and viability: SN12C; format: cell-based; settings: Renal Cancer, two days
[10] = tested on: MDA-MB-468; test: NCI60 cell growth and viability: MDA-MB-468
[11] = tested on: HS 578T; test: NCI60 cell growth and viability: HS 578T; format: cell-based; settings: Breast Cancer, two days
[12] = tested on: Hsp27, Hsp70, Hsp90 and p23; test: Chaperone protein levels in C4-2 cells, immunoblot; format: cell-based, human; settings: FIG. 4A/4B
[13] = tested on: NCI/ADR-RES; test: NCI60 cell growth and viability: NCI/ADR-RES; format: cell-based; settings: Ovarian Cancer, two days
[14] = tested on: C4-2 malignant prostate cancer cells vs BPH-1 non-tumorigenic prostate cells; test: AlamarBlue cell viability, C4-2 vs BPH-1; format: cell-based, human; settings: 96 hours, AlamarBlue assay, FIG. 6A
Protocol: The cells were treated for 96 hours with the indicated concentrations of the compounds of the disclosure and cell viability was measured with the AlamarBlue assay. FIG. 6B illustrates the results of Compound 0017 used in a 7-week Maximal Tolerated Dose (MTD) study conducted in mice (3 mice identified as 118, 119 and 120). […] After sacrificing the mice on the last day of the administration, mouse liver and heart tissue was isolated, messenger RNA extracted and the transcript abundance of the HSF1 target gene, Hsp70, was evaluated by qRT-PCR relative to the internal RNA control, GAPDH. The results of the vehicle-treated versus Compound 0017-treated experiments were compared.
Based on the chemical structure of Compound 0017 and its activity, and of other HSF1-interacting chemicals identified in the screen, additional derivatives were designed, synthesized and evaluated for binding to HSF1 and preferential inhibition of metastatic prostate cancer cells (C4-2) versus benign prostate cells (BPH-1).

[15] = tested on: M14; test: NCI60 cell growth and viability: M14; format: cell-based; settings: M14, Melanoma, two days
[16] = tested on: IGROV1; test: NCI60 cell growth and viability: IGROV1; format: cell-based; settings: IGROV1, Ovarian Cancer, two days
[17] = tested on: OVCAR-5; test: NCI60 cell growth and viability: OVCAR-5; format: cell-based; settings: OVCAR-5, Ovarian Cancer, two days
[18] = tested on: SK-MEL-2; test: NCI60 cell growth and viability: SK-MEL-2; format: cell-based; settings: SK-MEL-2, Melanoma, two days
[19] = Homo sapiens, 48 h, read-out: log10 [GI50 (M)] (converted)
[20] = Homo sapiens, 48 h, read-out: log10 [LC50 (M)] (converted)

O=C(Nc1ccc(F)cc1)Nc1ccc(Cl)c([N+](=O)[O-])c1 [Compound 0017, 1-(4-chloro-3-nitrophenyl)-3-(4-fluorophenyl)urea]
heat shock induced chaperone (Hsp25 and Hsp70) expression [1]: dose-dependently inhibited | cell viability, HSF1-expressing vs HSF1-knockdown C4/2 cells ([2]; 2.5 and 5 μM, FIG. 5C): preferentially reduces cell viability | Hsp70 and STAT6 expression ([2]; 48-hour treatment, in C4/2 scramble cell line, but not in HSF1-knockdown cell line, FIG. 5B): inhibition of Hsp70 expression and de-repression of STAT6 | GI50 [3, 19]: 5.89e-06 M | CC50 [3, 20]: ≥ 0.0001 M | log10 [TGI (M)] [3]: −4.00 log10 M | GI50 [4, 19]: 2.45e-06 M | CC50 [4, 20]: 4.68e-05 M | log10 [TGI (M)] [4]: −4.97 log10 M | GI50 ([5]; Homo sapiens, K562, 48 h, read-out: log10 [GI50 (M)] (converted)): 3.24e-06 M | CC50 ([5]; Homo sapiens, K562, 48 h, read-out: log10 [LC50 (M)] (converted)): ≥ 0.0001 M | log10 [TGI (M)] [5]: −4.00 log10 M | GI50 [6, 19]: 2.34e-06 M | CC50 [6, 20]: 2.95e-05 M | log10 [TGI (M)] [6]: −5.14 log10 M | GI50 [7, 19]: 2.63e-06 M | CC50 [7, 20]: 4.27e-05 M | log10 [TGI (M)] [7]: −5.12 log10 M | GI50 [8, 19]: 1.91e-06 M | CC50 [8, 20]: ≥ 0.0001 M | log10 [TGI (M)] [8]: −5.07 log10 M | GI50 [9, 19]: 2.95e-06 M | CC50 [9, 20]: 4.27e-05 M | log10 [TGI (M)] [9]: −4.93 log10 M | GI50 ([10]; Homo sapiens, MDA-MB-468, 48 h, read-out: log10 [GI50 (M)] (converted)): 2.14e-06 M | CC50 ([10]; Homo sapiens, MDA-MB-468, 48 h, read-out: log10 [LC50 (M)] (converted)): 3.55e-05 M | log10 [TGI (M)] ([10]; MDA-MB-468, Breast Cancer, two days): −5.12 log10 M | log10 [TGI (M)] [11]: −4.62 log10 M | GI50 [11, 19]: 3.98e-06 M | CC50 [11, 20]: ≥ 0.0001 M | steady-state protein level of Hsp27, Hsp70, Hsp90 and p23 [12]: dose-dependently reduced | GI50 [13, 19]: 2.57e-06 M | CC50 [13, 20]: ≥ 0.0001 M | log10 [TGI (M)] [13]: −4.99 log10 M | viability of C4-2 compared to BPH-1 [14]: preferentially inhibit the viability | GI50 [15, 19]: 3.16e-06 M | CC50 [15, 20]: 3.8e-05 M | log10 [TGI (M)] [15]: −4.91 log10 M | GI50 ([16]; Homo sapiens, IGROV-1, 48 h, read-out: log10 [GI50 (M)] (converted)): 4.79e-06 M | CC50 ([16]; Homo sapiens, IGROV-1, 48 h, read-out: log10 [LC50 (M)] (converted)): 7.41e-05 M | log10 [TGI (M)] [16]: −4.73 log10 M | GI50 [17, 19]: 3.55e-06 M | CC50 [17, 20]: 6.46e-05 M | log10 [TGI (M)] [17]: −4.83 log10 M | GI50 [18, 19]: 2.34e-06 M | CC50 [18, 20]: 2.51e-05 M | log10 [TGI (M)] [18]: −5.23 log10 M
